Data taken from the NIST ThermoML archive (doi:10.1016/j.jct.2016.12.032).
Numbers after ± are expanded uncertainties.

Experiment: not given
Conditions: 323.15 K; 100 kPa; Liquid; Frequency=3 MHz; Sing-around technique in a fixed-path interferometer

SMILES | speed of sound [m/s]
CC1CCC(=O)O1 (centres undefined) [γ-valerolactone] | 1341.2 ± 2.9
O=C1CCCCO1 [1-oxacyclohexan-2-one] | 1481.5 ± 3.2

Same assay, conditions: 323.15 K; 100 kPa; Liquid; Vibrating tube method

SMILES | mass density [kg/m3]
O=C1CCCCCO1 [6-hexanolactone] | 1050.4 ± 2
CC1CC(=O)O1 (centres undefined) [4-methyl-2-oxetanone] | 1023.19 ± 2
CC1CCC(=O)O1 (centres undefined) [γ-valerolactone] | 1025.74 ± 2
O=C1CCCCO1 [1-oxacyclohexan-2-one] | 1081.16 ± 2
CCCC[n+]1ccn(C)c1.O=S(=O)([N-]S(=O)(=O)C(F)(F)F)C(F)(F)F | 1411.54 ± 2

Experiment: refractive index (Na D-line) (dimensionless)
Conditions: 293.15 K; 100 kPa; Liquid; Standard Abbe refractometry

SMILES | refractive index
O=C1CCCCCO1 [6-hexanolactone] | 1.463 ± 0.003
CC1CC(=O)O1 (centres undefined) [4-methyl-2-oxetanone] | 1.414 ± 0.003
CC1CCC(=O)O1 (centres undefined) [γ-valerolactone] | 1.434 ± 0.003

Same assay, conditions: 298.15 K; 100 kPa; Liquid; Standard Abbe refractometry

SMILES | refractive index
O=C1CCCCCO1 [6-hexanolactone] | 1.461 ± 0.003
CC1CC(=O)O1 (centres undefined) [4-methyl-2-oxetanone] | 1.412 ± 0.003
CC1CCC(=O)O1 (centres undefined) [γ-valerolactone] | 1.432 ± 0.003

Same assay, conditions: 303.15 K; 100 kPa; Liquid; Standard Abbe refractometry

SMILES | refractive index
O=C1CCCCCO1 [6-hexanolactone] | 1.459 ± 0.003
CC1CC(=O)O1 (centres undefined) [4-methyl-2-oxetanone] | 1.41 ± 0.003
CC1CCC(=O)O1 (centres undefined) [γ-valerolactone] | 1.43 ± 0.003

Same assay, conditions: 308.15 K; 100 kPa; Liquid; Standard Abbe refractometry

SMILES | refractive index
O=C1CCCCCO1 [6-hexanolactone] | 1.457 ± 0.003
CC1CC(=O)O1 (centres undefined) [4-methyl-2-oxetanone] | 1.407 ± 0.003
CC1CCC(=O)O1 (centres undefined) [γ-valerolactone] | 1.427 ± 0.003

Same assay, conditions: 313.15 K; 100 kPa; Liquid; Standard Abbe refractometry

SMILES | refractive index
O=C1CCCCCO1 [6-hexanolactone] | 1.455 ± 0.003
CC1CC(=O)O1 (centres undefined) [4-methyl-2-oxetanone] | 1.405 ± 0.003
CC1CCC(=O)O1 (centres undefined) [γ-valerolactone] | 1.425 ± 0.003

Same assay, conditions: 318.15 K; 100 kPa; Liquid; Standard Abbe refractometry

SMILES | refractive index
O=C1CCCCCO1 [6-hexanolactone] | 1.454 ± 0.003
CC1CC(=O)O1 (centres undefined) [4-methyl-2-oxetanone] | 1.403 ± 0.003
CC1CCC(=O)O1 (centres undefined) [γ-valerolactone] | 1.423 ± 0.003

Same assay, conditions: 323.15 K; 100 kPa; Liquid; Standard Abbe refractometry

SMILES | refractive index
O=C1CCCCCO1 [6-hexanolactone] | 1.452 ± 0.003
CC1CC(=O)O1 (centres undefined) [4-methyl-2-oxetanone] | 1.401 ± 0.003
CC1CCC(=O)O1 (centres undefined) [γ-valerolactone] | 1.421 ± 0.003

Experiment: xn = mol fraction of the nth substance listed
Conditions: 293.15 K; 100 kPa; Liquid; Capillary tube (Ostwald / Ubbelohde) method; x1 = 1

SMILES | viscosity [mPa·s]
CCCC[n+]1ccn(C)c1.O=S(=O)([N-]S(=O)(=O)C(F)(F)F)C(F)(F)F + CC1CCC(=O)O1 | 62.08 ± 2.5
CCCC[n+]1ccn(C)c1.O=S(=O)([N-]S(=O)(=O)C(F)(F)F)C(F)(F)F + O=C1CCCCO1 | 62.08 ± 2.5
CCCC[n+]1ccn(C)c1.O=S(=O)([N-]S(=O)(=O)C(F)(F)F)C(F)(F)F + CC1CC(=O)O1 | 62.08 ± 2.5
CCCC[n+]1ccn(C)c1.O=S(=O)([N-]S(=O)(=O)C(F)(F)F)C(F)(F)F + O=C1CCCCCO1 | 62.08 ± 2.5

Same assay, conditions: 293.15 K; 100 kPa; Liquid; Vibrating tube method; x1 = 1

SMILES | mass density [kg/m3]
CCCC[n+]1ccn(C)c1.O=S(=O)([N-]S(=O)(=O)C(F)(F)F)C(F)(F)F + CC1CCC(=O)O1 | 1441.61 ± 2
CCCC[n+]1ccn(C)c1.O=S(=O)([N-]S(=O)(=O)C(F)(F)F)C(F)(F)F + O=C1CCCCO1 | 1441.61 ± 2
CCCC[n+]1ccn(C)c1.O=S(=O)([N-]S(=O)(=O)C(F)(F)F)C(F)(F)F + CC1CC(=O)O1 | 1441.61 ± 2
CCCC[n+]1ccn(C)c1.O=S(=O)([N-]S(=O)(=O)C(F)(F)F)C(F)(F)F + O=C1CCCCCO1 | 1441.61 ± 2

Same assay, conditions: 298.15 K; 100 kPa; Liquid; Capillary tube (Ostwald / Ubbelohde) method; x1 = 1

SMILES | viscosity [mPa·s]
CCCC[n+]1ccn(C)c1.O=S(=O)([N-]S(=O)(=O)C(F)(F)F)C(F)(F)F + CC1CCC(=O)O1 | 50.05 ± 2
CCCC[n+]1ccn(C)c1.O=S(=O)([N-]S(=O)(=O)C(F)(F)F)C(F)(F)F + O=C1CCCCO1 | 50.05 ± 2
CCCC[n+]1ccn(C)c1.O=S(=O)([N-]S(=O)(=O)C(F)(F)F)C(F)(F)F + CC1CC(=O)O1 | 50.05 ± 2
CCCC[n+]1ccn(C)c1.O=S(=O)([N-]S(=O)(=O)C(F)(F)F)C(F)(F)F + O=C1CCCCCO1 | 50.05 ± 2

Same assay, conditions: 298.15 K; 100 kPa; Liquid; Vibrating tube method; x1 = 1

SMILES | mass density [kg/m3]
CCCC[n+]1ccn(C)c1.O=S(=O)([N-]S(=O)(=O)C(F)(F)F)C(F)(F)F + CC1CCC(=O)O1 | 1436.67 ± 2
CCCC[n+]1ccn(C)c1.O=S(=O)([N-]S(=O)(=O)C(F)(F)F)C(F)(F)F + O=C1CCCCO1 | 1436.67 ± 2
CCCC[n+]1ccn(C)c1.O=S(=O)([N-]S(=O)(=O)C(F)(F)F)C(F)(F)F + CC1CC(=O)O1 | 1436.67 ± 2
CCCC[n+]1ccn(C)c1.O=S(=O)([N-]S(=O)(=O)C(F)(F)F)C(F)(F)F + O=C1CCCCCO1 | 1436.67 ± 2

Same assay, conditions: 303.15 K; 100 kPa; Liquid; Capillary tube (Ostwald / Ubbelohde) method; x1 = 1

SMILES | viscosity [mPa·s]
CCCC[n+]1ccn(C)c1.O=S(=O)([N-]S(=O)(=O)C(F)(F)F)C(F)(F)F + CC1CCC(=O)O1 | 41.24 ± 1.7
CCCC[n+]1ccn(C)c1.O=S(=O)([N-]S(=O)(=O)C(F)(F)F)C(F)(F)F + O=C1CCCCO1 | 41.24 ± 1.7
CCCC[n+]1ccn(C)c1.O=S(=O)([N-]S(=O)(=O)C(F)(F)F)C(F)(F)F + CC1CC(=O)O1 | 41.24 ± 1.7
CCCC[n+]1ccn(C)c1.O=S(=O)([N-]S(=O)(=O)C(F)(F)F)C(F)(F)F + O=C1CCCCCO1 | 41.24 ± 1.7

Same assay, conditions: 303.15 K; 100 kPa; Liquid; Vibrating tube method; x1 = 1

SMILES | mass density [kg/m3]
CCCC[n+]1ccn(C)c1.O=S(=O)([N-]S(=O)(=O)C(F)(F)F)C(F)(F)F + CC1CCC(=O)O1 | 1431.58 ± 2
CCCC[n+]1ccn(C)c1.O=S(=O)([N-]S(=O)(=O)C(F)(F)F)C(F)(F)F + O=C1CCCCO1 | 1431.58 ± 2
CCCC[n+]1ccn(C)c1.O=S(=O)([N-]S(=O)(=O)C(F)(F)F)C(F)(F)F + CC1CC(=O)O1 | 1431.58 ± 2
CCCC[n+]1ccn(C)c1.O=S(=O)([N-]S(=O)(=O)C(F)(F)F)C(F)(F)F + O=C1CCCCCO1 | 1431.58 ± 2

Same assay, conditions: 308.15 K; 100 kPa; Liquid; Capillary tube (Ostwald / Ubbelohde) method; x1 = 1

SMILES | viscosity [mPa·s]
CCCC[n+]1ccn(C)c1.O=S(=O)([N-]S(=O)(=O)C(F)(F)F)C(F)(F)F + CC1CCC(=O)O1 | 33.65 ± 1.4
CCCC[n+]1ccn(C)c1.O=S(=O)([N-]S(=O)(=O)C(F)(F)F)C(F)(F)F + O=C1CCCCO1 | 33.65 ± 1.4
CCCC[n+]1ccn(C)c1.O=S(=O)([N-]S(=O)(=O)C(F)(F)F)C(F)(F)F + CC1CC(=O)O1 | 33.65 ± 1.4
CCCC[n+]1ccn(C)c1.O=S(=O)([N-]S(=O)(=O)C(F)(F)F)C(F)(F)F + O=C1CCCCCO1 | 33.65 ± 1.4

Same assay, conditions: 308.15 K; 100 kPa; Liquid; Vibrating tube method; x1 = 1

SMILES | mass density [kg/m3]
CCCC[n+]1ccn(C)c1.O=S(=O)([N-]S(=O)(=O)C(F)(F)F)C(F)(F)F + CC1CCC(=O)O1 | 1426.62 ± 2
CCCC[n+]1ccn(C)c1.O=S(=O)([N-]S(=O)(=O)C(F)(F)F)C(F)(F)F + O=C1CCCCO1 | 1426.62 ± 2
CCCC[n+]1ccn(C)c1.O=S(=O)([N-]S(=O)(=O)C(F)(F)F)C(F)(F)F + CC1CC(=O)O1 | 1426.62 ± 2
CCCC[n+]1ccn(C)c1.O=S(=O)([N-]S(=O)(=O)C(F)(F)F)C(F)(F)F + O=C1CCCCCO1 | 1426.62 ± 2

Same assay, conditions: 313.15 K; 100 kPa; Liquid; Capillary tube (Ostwald / Ubbelohde) method; x1 = 1

SMILES | viscosity [mPa·s]
CCCC[n+]1ccn(C)c1.O=S(=O)([N-]S(=O)(=O)C(F)(F)F)C(F)(F)F + CC1CCC(=O)O1 | 28.28 ± 1.1
CCCC[n+]1ccn(C)c1.O=S(=O)([N-]S(=O)(=O)C(F)(F)F)C(F)(F)F + O=C1CCCCO1 | 28.28 ± 1.1
CCCC[n+]1ccn(C)c1.O=S(=O)([N-]S(=O)(=O)C(F)(F)F)C(F)(F)F + CC1CC(=O)O1 | 28.28 ± 1.1
CCCC[n+]1ccn(C)c1.O=S(=O)([N-]S(=O)(=O)C(F)(F)F)C(F)(F)F + O=C1CCCCCO1 | 28.28 ± 1.1

Same assay, conditions: 313.15 K; 100 kPa; Liquid; Vibrating tube method; x1 = 1

SMILES | mass density [kg/m3]
CCCC[n+]1ccn(C)c1.O=S(=O)([N-]S(=O)(=O)C(F)(F)F)C(F)(F)F + CC1CCC(=O)O1 | 1421.58 ± 2
CCCC[n+]1ccn(C)c1.O=S(=O)([N-]S(=O)(=O)C(F)(F)F)C(F)(F)F + O=C1CCCCO1 | 1421.58 ± 2
CCCC[n+]1ccn(C)c1.O=S(=O)([N-]S(=O)(=O)C(F)(F)F)C(F)(F)F + CC1CC(=O)O1 | 1421.58 ± 2
CCCC[n+]1ccn(C)c1.O=S(=O)([N-]S(=O)(=O)C(F)(F)F)C(F)(F)F + O=C1CCCCCO1 | 1421.58 ± 2

Same assay, conditions: 318.15 K; 100 kPa; Liquid; Capillary tube (Ostwald / Ubbelohde) method; x1 = 1

SMILES | viscosity [mPa·s]
CCCC[n+]1ccn(C)c1.O=S(=O)([N-]S(=O)(=O)C(F)(F)F)C(F)(F)F + CC1CCC(=O)O1 | 23.91 ± 0.97
CCCC[n+]1ccn(C)c1.O=S(=O)([N-]S(=O)(=O)C(F)(F)F)C(F)(F)F + O=C1CCCCO1 | 23.91 ± 0.97
CCCC[n+]1ccn(C)c1.O=S(=O)([N-]S(=O)(=O)C(F)(F)F)C(F)(F)F + CC1CC(=O)O1 | 23.91 ± 0.97
CCCC[n+]1ccn(C)c1.O=S(=O)([N-]S(=O)(=O)C(F)(F)F)C(F)(F)F + O=C1CCCCCO1 | 23.91 ± 0.97

Same assay, conditions: 318.15 K; 100 kPa; Liquid; Vibrating tube method; x1 = 1

SMILES | mass density [kg/m3]
CCCC[n+]1ccn(C)c1.O=S(=O)([N-]S(=O)(=O)C(F)(F)F)C(F)(F)F + CC1CCC(=O)O1 | 1416.58 ± 2
CCCC[n+]1ccn(C)c1.O=S(=O)([N-]S(=O)(=O)C(F)(F)F)C(F)(F)F + O=C1CCCCO1 | 1416.58 ± 2
CCCC[n+]1ccn(C)c1.O=S(=O)([N-]S(=O)(=O)C(F)(F)F)C(F)(F)F + CC1CC(=O)O1 | 1416.58 ± 2
CCCC[n+]1ccn(C)c1.O=S(=O)([N-]S(=O)(=O)C(F)(F)F)C(F)(F)F + O=C1CCCCCO1 | 1416.58 ± 2

Same assay, conditions: 323.15 K; 100 kPa; Liquid; Capillary tube (Ostwald / Ubbelohde) method; x1 = 1

SMILES | viscosity [mPa·s]
CCCC[n+]1ccn(C)c1.O=S(=O)([N-]S(=O)(=O)C(F)(F)F)C(F)(F)F + CC1CCC(=O)O1 | 20.64 ± 0.84
CCCC[n+]1ccn(C)c1.O=S(=O)([N-]S(=O)(=O)C(F)(F)F)C(F)(F)F + O=C1CCCCO1 | 20.64 ± 0.84
CCCC[n+]1ccn(C)c1.O=S(=O)([N-]S(=O)(=O)C(F)(F)F)C(F)(F)F + CC1CC(=O)O1 | 20.64 ± 0.84
CCCC[n+]1ccn(C)c1.O=S(=O)([N-]S(=O)(=O)C(F)(F)F)C(F)(F)F + O=C1CCCCCO1 | 20.64 ± 0.84

Same assay, conditions: 323.15 K; 100 kPa; Liquid; Vibrating tube method; x1 = 1

SMILES | mass density [kg/m3]
CCCC[n+]1ccn(C)c1.O=S(=O)([N-]S(=O)(=O)C(F)(F)F)C(F)(F)F + CC1CCC(=O)O1 | 1411.54 ± 2
CCCC[n+]1ccn(C)c1.O=S(=O)([N-]S(=O)(=O)C(F)(F)F)C(F)(F)F + O=C1CCCCO1 | 1411.54 ± 2
CCCC[n+]1ccn(C)c1.O=S(=O)([N-]S(=O)(=O)C(F)(F)F)C(F)(F)F + CC1CC(=O)O1 | 1411.54 ± 2
CCCC[n+]1ccn(C)c1.O=S(=O)([N-]S(=O)(=O)C(F)(F)F)C(F)(F)F + O=C1CCCCCO1 | 1411.54 ± 2
